Assay type in all cases: functional
Experiment [1] relates to Botrytis. The experiment is described as follows: Antifungal activity against Botrytis cinereapers assessed as inhibition rate at 50 ug/mL.
Experiment [2] relates to Dothiorella gregaria. Description: Antifungal activity against Dothiorella gregaria assessed as inhibition rate at 50 ug/mL.
Experiment [3] deals with Fusarium graminearum. Description: Antifungal activity against Fusarium graminearum assessed as inhibition rate at 50 ug/mL.
The test system of experiment [4] is Rhizoctonia solani. The experiment is described as follows: Antifungal activity against Rhizoctonia solani assessed as inhibition rate at 50 ug/mL.
For experiment [5], the system named is Colletotrichum gossypii. Description: Antifungal activity against Colletotrichum gossypii assessed as inhibition rate at 50 ug/mL.
Experiment [6] concerns Fusarium oxysporum. The experiment is described as follows: Antifungal activity against Fusarium oxysporum assessed as inhibition rate at 50 ug/mL.
In experiment [7] the test system is Pseudoperonospora cubensis. The experiment is described as follows: Antifungal activity against Pseudoperonospora cubensis inoculated in inoculated in cucumber plant assessed as preventive fungicidal activity at 100 ug/mL measured after 7 days.
Experiment [8] relates to Podosphaera fuliginea. Description: Antifungal activity against Podosphaera fuliginea inoculated in inoculated in cucumber plant assessed as preventive fungicidal activity at 100 ug/mL measured after 7 days.
Experiment [9] has as its system Podosphaera fuliginea. The experiment is described as follows: Antifungal activity against Podosphaera fuliginea inoculated in inoculated in cucumber plant assessed as preventive fungicidal activity at 50 ug/mL measured after 7 days.
The test system of experiment [10] is Pseudoperonospora cubensis. Description: Antifungal activity against Pseudoperonospora cubensis inoculated in inoculated in cucumber plant assessed as preventive fungicidal activity at 50 ug/mL measured after 7 days.
Experiment [11] has as its system Podosphaera fuliginea. The experiment is described as follows: Antifungal activity against Podosphaera fuliginea inoculated in inoculated in cucumber plant assessed as preventive fungicidal activity at 25 ug/mL measured after 7 days.
Experiment [12] deals with Pseudoperonospora cubensis. The experiment is described as follows: Antifungal activity against Pseudoperonospora cubensis inoculated in inoculated in cucumber plant assessed as preventive fungicidal activity at 25 ug/mL measured after 7 days.
Experiment [13] relates to Podosphaera fuliginea. Description: Antifungal activity against Podosphaera fuliginea inoculated in inoculated in cucumber plant assessed as preventive fungicidal activity measured after 7 days. The note with it: 168 h.
For experiment [14], the system named is Pseudoperonospora cubensis. Description: Antifungal activity against Pseudoperonospora cubensis inoculated in inoculated in cucumber plant assessed as preventive fungicidal activity measured after 7 days. The note with it: 168 h.

The structures appear in SMILES notation. Converted amounts (≈) assume the structure as drawn.

Turning to `CO/N=C(/C(=O)OC)c1ccccc1CSc1nnc(CSc2nc3nc(C)cc(C)n3n2)s1`, the inhibition at 50 µg/mL turned out to be 64% in experiment [1]; 58% in experiment [2]; 45% in [3]; 78% in [4]; 32% in experiment [5]; 54% in experiment [6].
With `CO/C=C(/C(=O)OC)c1ccccc1CSc1nc(C)cc(C)n1`, the inhibition at 50 µg/mL in experiment [1] came out at 52%; in [2], 91%; in experiment [3], 74%; in experiment [4] it was 83%; in experiment [5], 52%; in experiment [6] it was 79%. Further, the Activity amounted to 0% in [7], 70% in [8] and 40% in [9].
As to `CO/C=C(/C(=O)OC)c1ccccc1CSc1nnc(N)s1`, the inhibition at 50 µg/mL was 11% in experiment [1]; 55% in experiment [2]; 40% in experiment [3]; 61% in experiment [4]; 39% in experiment [5]; 65% in [6].
Take `CO/C=C(/C(=O)OC)c1ccccc1CSc1nnc(-c2ccccc2)n1N`: the inhibition at 50 µg/mL is 41% in experiment [1]; 76% in [2]; 69% in [3]; 84% in experiment [4]; 64% in experiment [5]; 76% in experiment [6].
`CO/C=C(/C(=O)OC)c1ccccc1CSc1nc2ccccc2[nH]1`: the inhibition at 50 µg/mL in experiment [1] came to 47%; in experiment [2], 87%; in experiment [3], 53%; in [4] it was 78%; in [5], 52%; in experiment [6], 45%.
Turning to `CO/C=C(/C(=O)OC)c1ccccc1CSc1nc2ccccc2o1`, the inhibition at 50 µg/mL in [1] is 47%; in experiment [2], 46%; in experiment [3] it was 81%; in experiment [4] it was 78%; in experiment [5], 83%; in [6], 69%.
Consider `CO/C=C(/C(=O)OC)c1ccccc1CSc1nc2ccccc2s1`, for which the inhibition at 50 µg/mL was found to be 47% in [1]; 94% in experiment [2]; 74% in experiment [3]; 87% in experiment [4]; 86% in experiment [5]; 69% in experiment [6]. The Activity came to 100% in [7]; 100% in experiment [8]; 94% in experiment [10]; 100% in [11]; 100% in experiment [9]; 62% in experiment [12]. The EC90 is 6.17 µg/mL (≈ 16.6 µM) in experiment [13] and 46.3 µg/mL (≈ 125 µM) in [14].
For the compound `CO/C=C(/C(=O)OC)c1ccccc1CSc1nn2c(C)nnc2s1`, the inhibition at 50 µg/mL amounted to 41% in experiment [1]; 82% in [2]; 53% in [3]; 83% in [4]; 50% in [5]; 59% in experiment [6].
As to `CO/C=C(/C(=O)OC)c1ccccc1CSc1nc2nc(C)cc(C)n2n1`, the inhibition at 50 µg/mL was 7% in experiment [1]; 78% in experiment [2]; 47% in [3]; 66% in experiment [4]; 39% in experiment [5]; 61% in [6].
In the case of `CO/C=C(/C(=O)OC)c1ccccc1CSc1nnc(CSc2nc3nc(C)cc(C)n3n2)o1`, the inhibition at 50 µg/mL in [1] came out at 36%; in experiment [2] it was 73%; in experiment [3], 36%; in experiment [4], 73%; in experiment [5], 39%; in experiment [6], 36%.
As for `CO/C=C(/C(=O)OC)c1ccccc1CSc1nnc(CSc2nc3nc(C)cc(C)n3n2)s1`, the inhibition at 50 µg/mL in [1] was 14%; in [2], 69%; in experiment [3], 44%; in experiment [4], 58%; in experiment [5], 39%; in experiment [6], 61%.
On to `CO/C=C(/C(=O)OC)c1ccccc1CSc1nnc(CSc2nc3nc(C)cc(C)n3n2)n1N`, for which the inhibition at 50 µg/mL amounted to 14% in [1]; 78% in experiment [2]; 43% in experiment [3]; 73% in [4]; 35% in [5]; 44% in [6].
Consider `CO/C=C(/C(=O)OC)c1ccccc1CSc1nnc(CSc2nc3nc(C)cc(C)n3n2)n1-c1ccccc1`, for which the inhibition at 50 µg/mL in experiment [1] is 7%; in experiment [2] it was 11%; in experiment [3], 36%; in experiment [4] it was 37%; in experiment [5], 17%; in [6], 40%.
Take `CO/C=C(/C(=O)OC)c1ccccc1CSc1cc(=O)c2ccccc2s1`: the inhibition at 50 µg/mL in experiment [1] was 18%; in experiment [2] it was 14%; in [3], 53%; in [4], 64%; in experiment [5] it was 52%; in experiment [6] it was 48%.
As to `CO/N=C(/C(=O)OC)c1ccccc1CSc1cc(=O)c2ccccc2s1`, the inhibition at 50 µg/mL in experiment [1] stood at 23%; in experiment [2], 19%; in [3], 61%; in experiment [4], 73%; in [5], 48%; in experiment [6], 44%.
With `CO/N=C(/C(=O)OC)c1ccccc1CSc1nc(C)cc(C)n1`, the inhibition at 50 µg/mL in experiment [1] was 27%; in experiment [2] it was 82%; in experiment [3], 61%; in [4], 73%; in [5], 59%; in [6] it was 76%.
Regarding `CO/N=C(/C(=O)OC)c1ccccc1CSc1nc2ccccc2[nH]1`, the inhibition at 50 µg/mL in experiment [1] was determined as 77%; in experiment [2], 87%; in experiment [3] it was 69%; in [4], 90%; in experiment [5], 82%; in experiment [6], 72%. Moreover, the Activity in experiment [7] and in [8] was 0% throughout.
For the compound `CO/N=C(/C(=O)OC)c1ccccc1CSc1nc2ccccc2s1`, the inhibition at 50 µg/mL in experiment [1] was 52%; in experiment [2], 84%; in experiment [3], 81%; in experiment [4], 82%; in [5], 75%; in [6] it was 74%. Moreover, the Activity in [7] amounted to 84%; in experiment [8] it was 100%; in experiment [10], 66%; in experiment [11], 97%; in experiment [9], 100%; in experiment [12], 39%. The EC90 in experiment [13] amounted to 9.6 µg/mL (≈ 25.8 µM); in experiment [14] it was 150 µg/mL (≈ 404 µM).
For the compound `CO/N=C(/C(=O)OC)c1ccccc1CSc1nc2nc(C)cc(C)n2n1`, the inhibition at 50 µg/mL worked out at 14% in experiment [1]; 78% in experiment [2]; 50% in experiment [3]; 69% in experiment [4]; 35% in experiment [5]; 50% in experiment [6].
With `CO/N=C(/C(=O)OC)c1ccccc1CSc1nnc(CSc2nc3nc(C)cc(C)n3n2)o1`, the inhibition at 50 µg/mL in experiment [1] was found to be 77%; in [2] it was 70%; in experiment [3], 41%; in experiment [4] it was 88%; in experiment [5], 36%; in experiment [6], 63%.
Take `CO/N=C(/C(=O)OC)c1ccccc1COc1ccccc1C` [KRESOXIM-METHYL]: the inhibition at 50 µg/mL in [1] was determined as 50%; in experiment [2], 82%; in [3] it was 53%; in experiment [4], 70%; in experiment [5] it was 50%; in experiment [6], 61%. Moreover, the Activity in [7] is recorded as 80%; in experiment [8], 100%; in experiment [10], 56%; in [11] it was 98%; in experiment [9] it was 100%; in [12] it was 27%. Besides, the EC90 in experiment [13] stood at 7.3 µg/mL (≈ 23.3 µM); in experiment [14], 155 µg/mL (≈ 494 µM).
Turning to `CC(C)(C)C(=O)C(Oc1ccc(Cl)cc1)n1cncn1` (stereo unspecified) [TRIADIMEFON], the inhibition at 50 µg/mL in [1] turned out to be 84%; in experiment [2] it was 61%; in experiment [3] it was 72%; in [4] it was 90%; in experiment [5], 95%; in experiment [6], 86%.

The inhibition is the drop in the measured response relative to a control, in per cent. Usually EC90 stands for the concentration needed for an effect of 90%.

These data come from ChEMBL document CHEMBL3044809, “Design, synthesis, and fungicidal activities of new strobilurin derivatives” (2007).
